Measured values as given in US4868299A, “Antibacterially active pyrido-benzothiazine derivatives with long-term action” (Mediolanum Farmaceutici Srl, priority 1986, dated 1989).
≈ marks a conversion by molar mass, not a printed value. Read-outs that look alike come from different tables or passages of the source.

Key:
Citrobacter 118 = test: in-vitro antibacterial activity, MIC by agar dilution (multipoint inoculator); format: cell-based; conditions: Citrobacter 118; 18 hours at 37° C; read-out: Minimum Inhibiting Concentration (MIC)
Method: (§1) The antibacterial activity of the compounds according to the invention was determined "in vitro" on pathogenic strains of recent clinical isolation by testing agar dilutions using a multipoint inoculator (Denley Techn. Ltd., England).
(§2) The culture medium used is isosensitest agar (Oxoid), in a quantity of 20 ml in a Petri capsule. The compounds to be tested were dissolved at various dilutions and incorporated in agar.
(§3) The bacterial inoculum, originating from an overnight broth and containing 10^5 colony-forming units per point, was inoculated by a multipoint inoculator. The bacterial growth was evaluated after 18 hours of incubation at 37° C.
(§4) For comparison purposes, the results relative to compound (XIII) and to nalidixic acid are also reported.

Citrobacter 120 = test: as above; format: cell-based; conditions: Citrobacter 120; 18 hours at 37° C; read-out: Minimum Inhibiting Concentration (MIC)
Method: as §1, §2, §3, §4

Enterobacter 041 = test: as above; format: cell-based; conditions: Enterobacter 041; 18 hours at 37° C; read-out: Minimum Inhibiting Concentration (MIC)
Method: as §1, §2, §3, §4

Enterobacter 2653 = test: as above; format: cell-based; conditions: Enterobacter 2653; 18 hours at 37° C; read-out: Minimum Inhibiting Concentration (MIC)
Method: as §1, §2, §3, §4

Escherichia 15 = test: as above; format: cell-based; conditions: 18 hours at 37° C, read-out: Minimum Inhibiting Concentration (MIC)
Method: as §1, §2, §3, §4

Escherichia 963 = test: as above; format: cell-based; conditions: Escherichia 963; 18 hours at 37° C; read-out: Minimum Inhibiting Concentration (MIC)
Method: as §1, §2, §3, §4

Klebsiella 4 = test: as above; format: cell-based; conditions: Klebsiella 4; 18 hours at 37° C; read-out: Minimum Inhibiting Concentration (MIC)
Method: as §1, §2, §3, §4

Proteus 25 = test: as above; format: cell-based; conditions: Proteus 25; 18 hours at 37° C; read-out: Minimum Inhibiting Concentration (MIC)
Method: as §1, §2, §3, §4

Proteus 966 = test: as above; format: cell-based; conditions: Proteus 966; 18 hours at 37° C; read-out: Minimum Inhibiting Concentration (MIC)
Method: as §1, §2, §3, §4

Pseudomonas 19 = test: as above; format: cell-based; conditions: Pseudomonas 19; 18 hours at 37° C; read-out: Minimum Inhibiting Concentration (MIC)
Method: as §1, §2, §3, §4

Pseudomonas 22437 = test: as above; format: cell-based; conditions: 18 hours at 37° C, read-out: Minimum Inhibiting Concentration (MIC)
Method: as §1, §2, §3, §4

Serratia 10 = test: as above; format: cell-based; conditions: 18 hours at 37° C, read-out: Minimum Inhibiting Concentration (MIC)
Method: as §1, §2, §3, §4

Serratia 9 = test: as above; format: cell-based; conditions: Serratia 9; 18 hours at 37° C; read-out: Minimum Inhibiting Concentration (MIC)
Method: as §1, §2, §3, §4

Staphylococcus 29 = test: as above; format: cell-based; conditions: Staphylococcus 29; 18 hours at 37° C; read-out: Minimum Inhibiting Concentration (MIC)
Method: as §1, §2, §3, §4

Staphylococcus 7 = test: as above; format: cell-based; conditions: Staphylococcus 7; 18 hours at 37° C; read-out: Minimum Inhibiting Concentration (MIC)
Method: as §1, §2, §3, §4

[1] = urine concentrations after oral administration to the rat (HPLC); format: in vivo; conditions: 50 mg/kg oral; for Cumulative excretion (urine) / Volume excreted (urine): pool of 6 rats
Method: (§5) The compound (X) was administered orally at a dose of 50 mg/kg to the rat after which the plasma, tissue and urine concentrations were evaluated by the HPLC method, as described hereinafter.
The urine was collected at various times during the 24 hours following administration. The results relative to urine concentrations are summarised in Table 2, and refer to a urine pool obtained form 6 female rates having a weight of about 100 g.
(§6) The HPLC determination was made by the following procedure: 2 mg of N-dimethyldiarepam (internal standard), 1 ml of citrate buffer (0.1 M, pH 6.2) and 6 ml of chloroform are added to 1 ml of plasma or to 1 ml of supernatant obtained after centrifuging a homogenized tissue in 3 volumes of physiological solution at 2000 r.p.m. for 5 minutes.
(§7) After agitating for 20 minutes and centrifuging at 3000 r.p.m. for 5 minutes, the organic phase is separated and dried over a water bath at 70° C.
(§8) The residue is collected in 50 μl of methanol, and 20 μl of the solution are injected into a HPLC (Gilson) column under the following conditions: column μ Bondopak C-18 ([…], wavelength 245 nm), flow: 0.7 ml/min, mobile phase: (A) 0.1% acetic acid and (B) methanol, gradient: […]

[2] = plasma and tissue concentrations after oral administration to the rat (HPLC); format: in vivo; conditions: for concentration at 0.5 h: 0.5 hours after treatment; for concentration at 4 h: 4 hours after treatment; for concentration at 15 h: 15 hours after treatment
Method: as §5
The plasma and tissues (heart, kidney and liver) were withdrawn from groups of 3 female rats at various times after oral administration.
as §6, §7, §8

[3] = rat, 50 mg/kg oral, heart, read-out: Heart concentration
[4] = rat, 50 mg/kg oral, kidney, read-out: Kidney concentration
[5] = rat, 50 mg/kg oral, liver, read-out: Liver concentration
[6] = rat, 50 mg/kg oral, plasma, read-out: Plasma concentration

For `CC1Cn2cc(C(=O)O)c(=O)c3cc(F)c(N4CCN(C)CC4)c(c32)S1` (centres unmarked) [(X), 9-fluoro-10[N(N'-methyl)piperazinyl]-2-methyl-7-oxo-2,3-dihydro-7H-pyrido[1,2,3-de][1,4]benzothiazine-6-carboxylic acid], which MIC (Citrobacter 118) is on record?
The MIC was 0.5 µg/mL (≈ 1.32 µM).

And the MIC (Citrobacter 120)?
Its MIC is 0.25 µg/mL (≈ 0.662 µM).

What about the MIC (Enterobacter 041) of the same compound?
Its MIC is 0.25 µg/mL (≈ 0.662 µM).

What about the MIC (Enterobacter 2653) of the same compound?
Its MIC is 0.5 µg/mL (≈ 1.32 µM).

What about the MIC (Escherichia 15) of the same compound?
The MIC was 0.25 µg/mL (≈ 0.662 µM).

What about the MIC (Escherichia 963) of the same compound?
The MIC was 2 µg/mL (≈ 5.3 µM).

And the MIC (Klebsiella 4)?
Its MIC is 0.25 µg/mL (≈ 0.662 µM).

And the MIC (Proteus 25)?
The MIC was 8 µg/mL (≈ 21.2 µM).

And the MIC (Proteus 966)?
The MIC was 8 µg/mL (≈ 21.2 µM).

And the MIC (Pseudomonas 19)?
Its MIC is 16 µg/mL (≈ 42.4 µM).

And the MIC (Pseudomonas 22437)?
Its MIC is 16 µg/mL (≈ 42.4 µM).

And the MIC (Serratia 10)?
The MIC was 2 µg/mL (≈ 5.3 µM).

What about the MIC (Serratia 9) of the same compound?
Its MIC is 8 µg/mL (≈ 21.2 µM).

What about the MIC (Staphylococcus 29) of the same compound?
The MIC was 2 µg/mL (≈ 5.3 µM).

And the MIC (Staphylococcus 7)?
The MIC was 2 µg/mL (≈ 5.3 µM).

What about the “urine concentrations, in words” value [1] of the same compound?
Its value is “lasting and high”.

And the “Cumulative excretion (urine)” value ([1]; 0-1 hours after treatment)?
The value was 0.50 mg.

What about the “Volume excreted (urine)” value ([1]; 0-1 hours after treatment) of the same compound?
The value was 5.5 mL.

And the “Cumulative excretion (urine)” value ([1]; 1-2 hours after treatment)?
Its value is 1.33 mg.

What about the “Volume excreted (urine)” value ([1]; 1-2 hours after treatment) of the same compound?
Its value is 3.2 mL.

What about the “Cumulative excretion (urine)” value ([1]; 2-4 hours after treatment) of the same compound?
Its value is 2.05 mg.

What about the “Volume excreted (urine)” value ([1]; 2-4 hours after treatment) of the same compound?
Its value is 7.2 mL.

And the “Cumulative excretion (urine)” value ([1]; 4-8 hours after treatment)?
Its value is 3.13 mg.

And the “Volume excreted (urine)” value ([1]; 4-8 hours after treatment)?
Its value is 6.0 mL.

What about the “Cumulative excretion (urine)” value ([1]; 8-24 hours after treatment) of the same compound?
The value was 8.17 mg.

What about the “Volume excreted (urine)” value ([1]; 8-24 hours after treatment) of the same compound?
Its value is 28.0 mL.

And the concentration at 1 h ([1]; urine, 0-1 hours after treatment)?
The concentration at 1 h was 90 µg/mL.

And the concentration at 2 h ([1]; urine, 1-2 hours after treatment)?
Its concentration at 2 h is 260 µg/mL.

What about the concentration at 4 h ([1]; urine, 2-4 hours after treatment) of the same compound?
The concentration at 4 h was 100 µg/mL.

And the concentration at 8 h ([1]; urine, 4-8 hours after treatment)?
The concentration at 8 h was 180 µg/mL.

What about the concentration at 24 h ([1]; urine, 8-24 hours after treatment) of the same compound?
The concentration at 24 h was 180 µg/mL.

And the dose excreted at 24 h ([1]; urine, within 24 hours, of the orally administered dose, read-out: percentage urine excretion of the non-metabolized product)?
Its dose excreted at 24 h is about 27%.

And the “absorption after oral administration, in words” value ([2]; rat, 50 mg/kg oral)?
Its value is “rapidly absorbed after oral administration to induce high tissue levels”.

And the “heart, kidney and liver concentrations relative to plasma, in words” value ([2]; rat, 50 mg/kg oral)?
The value was “always greater than those observed in the plasma”.

What about the “tissue bioavailability, in words” value ([2]; rat, 50 mg/kg oral) of the same compound?
Its value is “excellent tissue bioavailability”.

And the “concentrations relative to the MIC values, in words” value ([2]; rat, 50 mg/kg oral, 15 hours after administration)?
Its value is “high concentrations relative to the MIC values are still present”.

What about the concentration at 0.5 h [2, 3] of the same compound?
Its concentration at 0.5 h is 19200 ng/g.

And the concentration at 4 h [2, 3]?
The concentration at 4 h was 18600 ng/g.

And the concentration at 15 h [2, 3]?
Its concentration at 15 h is 4630 ng/g.

And the concentration at 0.5 h [2, 4]?
Its concentration at 0.5 h is 34400 ng/g.

And the concentration at 4 h [2, 4]?
Its concentration at 4 h is 38700 ng/g.

What about the concentration at 15 h [2, 4] of the same compound?
The concentration at 15 h was 5900 ng/g.

And the concentration at 0.5 h [2, 5]?
The concentration at 0.5 h was 62900 ng/g.

What about the concentration at 4 h [2, 5] of the same compound?
Its concentration at 4 h is 34300 ng/g.

And the concentration at 15 h [2, 5]?
Its concentration at 15 h is 9370 ng/g.

And the concentration at 0.5 h [2, 6]?
The concentration at 0.5 h was 10.2 µg/mL.

What about the concentration at 4 h [2, 6] of the same compound?
The concentration at 4 h was 8.1 µg/mL.

And the concentration at 15 h [2, 6]?
Its concentration at 15 h is 3.5 µg/mL.

With `CC1Cn2cc(C(=O)O)c(=O)c3cc(F)c(N4CCNCC4)c(c32)S1` (centres unmarked) [(XI), 9-fluoro-10[N-piperazinyl]-2-methyl-7-oxo-2,3-dihydro-7H-pyrido[1,2,3-de][1,4]benzothiazine-6-carboxylic acid] as the compound, how does the “results of the tests operating in accordance with the described procedures, in words” value ([2]; rat, in vivo) read?
Its value is “analogous to the tests carried out with compound (X)”.

Which MIC (Citrobacter 118) does the source give for `CC1Cn2cc(C(=O)O)c(=O)c3cc(F)c(N4CCCC4)c(c32)S1` (centres unmarked) [(XII), 9-fluoro-10[N-pyrrolidine]-2-methyl-7-oxo-2,3-dihydro-7H-pyrido[1,2,3-de][1,4]benzothiazine-6-carboxylic acid] here?
The MIC was 16 µg/mL (≈ 45.9 µM).

And the MIC (Citrobacter 120)?
Its MIC is 2 µg/mL (≈ 5.74 µM).

What about the MIC (Enterobacter 041) of the same compound?
The MIC was 2 µg/mL (≈ 5.74 µM).

What about the MIC (Enterobacter 2653) of the same compound?
Its MIC is 16 µg/mL (≈ 45.9 µM).

What about the MIC (Escherichia 15) of the same compound?
Its MIC is 2 µg/mL (≈ 5.74 µM).

And the MIC (Escherichia 963)?
The MIC was 16 µg/mL (≈ 45.9 µM).

And the MIC (Klebsiella 4)?
Its MIC is 2 µg/mL (≈ 5.74 µM).

What about the MIC (Proteus 25) of the same compound?
Its MIC is 2 µg/mL (≈ 5.74 µM).

And the MIC (Proteus 966)?
Its MIC is 2 µg/mL (≈ 5.74 µM).

What about the MIC (Pseudomonas 19) of the same compound?
The MIC was 2 µg/mL (≈ 5.74 µM).

And the MIC (Pseudomonas 22437)?
Its MIC is 16 µg/mL (≈ 45.9 µM).

And the MIC (Serratia 10)?
Its MIC is 2 µg/mL (≈ 5.74 µM).

And the MIC (Serratia 9)?
The MIC was 16 µg/mL (≈ 45.9 µM).

And the MIC (Staphylococcus 29)?
Its MIC is 0.25 µg/mL (≈ 0.718 µM).

What about the MIC (Staphylococcus 7) of the same compound?
Its MIC is 0.25 µg/mL (≈ 0.718 µM).

What about the “results of the tests operating in accordance with the described procedures, in words” value ([2]; compared with compound (X)) of the same compound?
Its value is “analogous to the tests carried out with compound (X)”.
